Assay type in all cases: cell-based
Parameters in all cases: Fold induction, AR response reporter

For assay [1], the target named is T1, AR (Homo sapiens, UniProt P10275).
T1 sequence (P10275 1-920): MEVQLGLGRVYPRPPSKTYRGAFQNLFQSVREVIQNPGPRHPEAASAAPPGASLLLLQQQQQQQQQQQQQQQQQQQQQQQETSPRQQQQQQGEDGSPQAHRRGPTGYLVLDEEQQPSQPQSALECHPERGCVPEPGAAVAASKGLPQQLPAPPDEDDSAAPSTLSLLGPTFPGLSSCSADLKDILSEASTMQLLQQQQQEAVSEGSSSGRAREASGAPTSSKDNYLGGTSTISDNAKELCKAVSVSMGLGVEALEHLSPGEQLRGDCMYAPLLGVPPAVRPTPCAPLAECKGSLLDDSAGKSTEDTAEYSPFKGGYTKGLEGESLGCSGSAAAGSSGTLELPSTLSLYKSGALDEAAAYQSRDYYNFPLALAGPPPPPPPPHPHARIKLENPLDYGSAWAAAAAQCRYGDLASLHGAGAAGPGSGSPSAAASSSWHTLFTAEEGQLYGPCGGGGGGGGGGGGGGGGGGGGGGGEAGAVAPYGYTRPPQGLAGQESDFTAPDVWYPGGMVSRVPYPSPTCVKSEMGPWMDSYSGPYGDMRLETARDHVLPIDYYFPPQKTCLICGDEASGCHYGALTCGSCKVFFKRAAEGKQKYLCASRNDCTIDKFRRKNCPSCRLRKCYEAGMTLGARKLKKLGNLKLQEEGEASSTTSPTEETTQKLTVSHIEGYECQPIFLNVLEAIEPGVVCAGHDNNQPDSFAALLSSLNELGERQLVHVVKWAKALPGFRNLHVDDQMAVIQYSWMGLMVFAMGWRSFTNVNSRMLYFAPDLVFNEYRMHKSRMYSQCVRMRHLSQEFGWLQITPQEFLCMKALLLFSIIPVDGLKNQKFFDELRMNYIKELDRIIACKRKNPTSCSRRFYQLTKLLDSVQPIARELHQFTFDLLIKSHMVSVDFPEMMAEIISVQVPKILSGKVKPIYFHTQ
Conditions: for rank by relative PSA level, most active to least active: 500 nM; for PSA levels of LN-AR cells: 100, 200, 500, and 1000 nM, FIG. 20. As to the method:
It is well established that PSA levels are indicators of AR activities in prostate cancer. […] The LNCaP-AR cells are a line of lymph node carcinoma of prostate cells transduced with a plasmid that makes express androgen receptors. […] After four days incubation, secreted PSA levels were assayed using PSA ELISA kits (American Qualex, San Clemente, Calif.)

Assay [2] concerns the target T1, AR. The conditions noted are these: LN-AR, absence of R1881. As to the method: Activities of AR response reporter were measured.
Assay [3] addresses T1, AR. The conditions noted are these: AR over expressed LNCaP, absence of R1881.
Assay [4] has as its target T1, AR. Conditions: for luciferase activity in LNCaP-AR cells: 125 nM to 1000 nM; for luciferase activity in LNCaP-AR cells / rank by relative luciferase activity, most active to least active: FIG. 3; for rank by relative luciferase activity, most active to least active: 500 nM; for inhibitory activity on AR response reporter: hormone refractory LNCaP-AR. On the procedure: The compounds were subjected to tests using an artificial AR response reporter system in a hormone refractory prostate cancer cell line. […] After two days of incubation, reporter activities were assayed.

Where [5] appears, read: LN/AR cell line, 125 nmol to 1000 nmol.

`N#Cc1ccc(N2C(=O)C3(CCC3)N(c3ccc(CCC(N)=O)cc3)C2=S)cc1C(F)(F)F` [NC43, 3-{4-[7-(4-cyano-3-trifluoromethylphenyl)-8-oxo-6-thioxo-5,7-diaza-spiro[3.4]oct-5-yl]-phenyl}-propionamide]: on AR [1], the “decrease in PSA level of LNCaP-AR cells (comparison)” value (from here on “decrease in PSA level”) was “greater decrease in PSA level of LNCaP-AR cells than NC45 and NC49”; the “rank by relative PSA level, most active to least active” value (“rank by relative PSA level” below) is on record as “NC50>NC48>NC7>NC43>NC44>NC49>NC50>NC45>bicalutamide”.
`N#Cc1ccc(N2C(=O)C3(CCC3)N(c3ccc(N4CCNCC4)cc3)C2=S)cc1C(F)(F)F` [NC49, 4-[8-Oxo-5-(4-piperazin-1-yl-phenyl)-6-thioxo-5,7-diazaspiro[3.4]oct-7-yl]-2-trifluoromethylbenzonitrile]: at AR [1], the “decrease in PSA level” value is “greater decrease in PSA level than bicalutamide” and the “rank by relative PSA level” value is on record as “NC50>NC48>NC7>NC43>NC44>NC49>NC50>NC45>bicalutamide”.
With `CCNC(=S)N=C1N(c2ccc(C#N)c(C(F)(F)F)c2)C(=S)N(c2ccc(C)cc2)C1(C)C` [NC34, 1-[3-(4-cyano-3-trifluoromethyl-phenyl)-5,5-dimethyl-2-thioxo-1-p-tolyl-imidazolidin-4-ylidene]-3-ethyl-thiourea], the “agonistic activity on AR response reporter” value at AR [2] is reported as “no agonistic activity”. For the same compound, at AR [3], the “agonistic activity on secreted PSA” value was “no agonistic activities”.
Take `CNC(=O)c1ccc(N2C(=S)N(c3ccc(C#N)c(C(F)(F)F)c3)C(=O)C23CCCC3)cc1F` [NC55, 4-(3-(4-Cyano-3-(trifluoromethyl)phenyl)-4-oxo-2-thioxo-1,3-diazaspiro[4.4]nonan-1-yl)-2-fluoro-N-methylbenzamide]: the “PSA levels of LN-AR cells” value on AR [1] is given as “PSA levels of LN-AR cells decreased”.
With `CC1(C)C(=O)N(c2ccc(C#N)c(C(F)(F)F)c2)C(=S)N1CCCCO` [Example 29, 4-[3-(4-hydroxybutyl)-4,4-dimethyl-5-oxo-2-thioxoimidazolidin-1-yl]-2-trifluoromethylbenzonitrile, reference compound], the “IC50 (nM) Reporter” value at AR [4] (LNCaP-AR, 100 pM R1881, two days, No = did not inhibit AR response reporter) is “No (*)”. Also, the “agonistic activity on AR response reporter” value at AR [2] is “strongly activated AR”. Also, the “agonistic activity on secreted PSA” value on AR [3] was “stimulated PSA expression”.
As to `N#Cc1ccc(N2C(=O)C3(CCC3)N(c3ccc(CCC(=O)NCCO)cc3)C2=S)cc1C(F)(F)F` [NC45, 3-{4-[7-(4-cyano-3-trifluoromethylphenyl)-8-oxo-6-thioxo-5,7-diaza-spiro[3.4]oct-5-yl]-phenyl}-N-(2-hydroxyethyl)-propionamide], on AR [1], the “decrease in PSA level” value was “greater decrease in PSA level than bicalutamide” and the “rank by relative PSA level” value is “NC50>NC48>NC7>NC43>NC44>NC49>NC50>NC45>bicalutamide”.
As for `CNC(=O)c1ccc(N2C(=S)N(c3ccc(C#N)c(C(F)(F)F)c3)C(=O)C2(C)C)cc1` [NC68], at AR [4], the “luciferase activity in LNCaP-AR cells” value is recorded as “acted to reduce luciferase activity” and the “rank by relative luciferase activity, most active to least active” value (“rank by relative luciferase activity” below) is “NC67>NC68>NC66>NC69>NC77=NC53>bicalutamide”. For the same compound, the “luciferase activity (comparison)” value on AR [4] (setting [5]) was “less than the luciferase activity upon exposure to NC103”.
Consider `CS(=O)(=O)c1ccc(N2C(=S)N(c3ccc(C#N)c(C(F)(F)F)c3)C(=O)C23CCC3)cc1` [NC66], for which, at AR [4], the “luciferase activity in LNCaP-AR cells” value was “acted to reduce luciferase activity” and the “rank by relative luciferase activity” value is recorded as “NC67>NC68>NC66>NC69>NC77=NC53>bicalutamide”.
In the case of `CN(C)C(=O)CCCc1ccc(N2C(=S)N(c3ccc(C#N)c(C(F)(F)F)c3)C(=O)C23CCC3)cc1` [NC56, 4-(4-(7-(4-Cyano-3-(trifluoromethyl)phenyl)-8-oxo-6-thioxo-5,7-diazaspiro[3.4]octan-5-yl)phenyl)-N,N-dimethylbutanamide], the “PSA levels of LN-AR cells” value at AR [1] was “PSA levels of LN-AR cells decreased”.
For the compound `Cc1ccc(N2C(=S)N(c3ccc(C#N)c(C(F)(F)F)c3)C(=NC(=S)Nc3ccc(C#N)c(C(F)(F)F)c3)C23CCC3)cc1` [NC36, 1-(4-Cyano-3-trifluoromethyl-phenyl)-3-[7-(4-cyano-3-trifluoromethyl-phenyl)-6-thioxo-5-p-tolyl-5,7-diaza-spiro[3.4]oct-8-ylidene]-thiourea], the “agonistic activity on AR response reporter” value on AR [2] is reported as “no agonistic activity”. Besides, on AR [3], the “agonistic activity on secreted PSA” value is “no agonistic activities”.
In the case of `CS(=O)(=O)N1CCN(c2ccc(N3C(=S)N(c4ccc(C#N)c(C(F)(F)F)c4)C(=O)C34CCC4)cc2)CC1` [NC50, 4-{5-[4-(4-methanesulfonylpiperazin-1-yl)-phenyl]-8-oxo-6-thioxo-5,7-diazaspiro[3.4]oct-7-yl}-2-trifluoromethylbenzonitrile], at AR [1], the “decrease in PSA level” value was “greater decrease in PSA level of LNCaP-AR cells than NC45 and NC49”; the “rank by relative PSA level” value is “NC50>NC48>NC7>NC43>NC44>NC49>NC50>NC45>bicalutamide”.
Take `N#Cc1ccc(N2C(=O)C3(CCC3)N(c3ccc(O)cc3F)C2=S)cc1C(F)(F)F` [NC69]: on AR [4], the “luciferase activity in LNCaP-AR cells” value is recorded as “acted to reduce luciferase activity” and the “rank by relative luciferase activity” value is listed as “NC67>NC68>NC66>NC69>NC77=NC53>bicalutamide”.
With `Cc1ccc(N2C(=S)N(c3ccc(C#N)c(C(F)(F)F)c3)C(=NC(=S)Nc3ccccc3)C23CCC3)cc1` [NC35, 1-[7-(4-cyano-3-trifluoromethyl-phenyl)-6-thioxo-5-p-tolyl-5,7-diaza-spiro[3.4]oct-8-ylidene]-3-phenyl-thiourea], the “agonistic activity on AR response reporter” value on AR [2] is recorded as “no agonistic activity”. The “agonistic activity on secreted PSA” value on AR [3] is on record as “no agonistic activities”.
On to `CN1C(=O)N(c2ccc(C#N)c(C(F)(F)F)c2)C(=O)C12CCCC2` [NC27, 4-(1-methyl-2,4-dioxo-1,3-diaza-spiro[4.4]non-3-yl)-2-trifluoromethylbenzonitrile, reference compound], for which the “inhibitory activity on AR response reporter” value against AR [4] is recorded as “no inhibitory activities”. In addition, the “agonistic activity on AR response reporter” value at AR [2] was “strongly activated AR”.
Regarding `COC(=O)c1ccc(N2C(=S)N(c3ccc(C#N)c(C(F)(F)F)c3)C(=O)C2(C)C)cc1` [NC67], on AR [4], the “luciferase activity in LNCaP-AR cells” value was “acted to reduce luciferase activity” and the “rank by relative luciferase activity” value is “NC67>NC68>NC66>NC69>NC77=NC53>bicalutamide”.
For `N#Cc1ccc(N2C(=O)C3(CCCC3)NC2=S)cc1C(F)(F)F` [NC28, 4-(4-oxo-2-thioxo-1,3-diazaspiro[4.4]non-3-yl)-2-trifluoromethylbenzonitrile, reference compound], the “inhibitory activity on AR response reporter” value at AR [4] was “no inhibitory activities”. Besides, the “agonistic activity on AR response reporter” value at AR [2] was “strongly activated AR”.
`N#Cc1ccc(N2C(=O)C3(CCC3)N(c3ccc(CCCC(N)=O)cc3)C2=S)cc1C(F)(F)F` [NC47, 4-{4-[7-(4-Cyano-3-trifluoromethylphenyl)-8-oxo-6-thioxo-5,7-diaza-spiro[3.4]oct-5-yl]-phenyl}-butyramide]: the “PSA level (comparison)” value on AR [1] (setting [5]) was “less than the PSA level upon exposure to NC42 and NC46”.
Turning to `N#CCCCc1ccc(N2C(=S)N(c3ccc(C#N)c(C(F)(F)F)c3)C(=O)C23CCC3)cc1` [NC57, 4-(5-(4-(3-Cyanopropyl)phenyl)-8-oxo-6-thioxo-5,7-diazaspiro[3.4]octan-7-yl)-2-(trifluoromethyl)benzonitrile], the “PSA levels of LN-AR cells” value on AR [1] is on record as “PSA levels of LN-AR cells decreased”.
Consider `CNC(=O)CCc1ccc(N2C(=S)N(c3ccc(C#N)c(C(F)(F)F)c3)C(=O)C23CCC3)cc1` [NC44, 3-{4-[7-(4-Cyano-3-trifluoromethylphenyl)-8-oxo-6-thioxo-5,7-diaza-spiro[3.4]oct-5-yl]-phenyl}-N-methyl-propionamide], for which, at AR [1], the “decrease in PSA level” value was “greater decrease in PSA level of LNCaP-AR cells than NC45 and NC49”; the “rank by relative PSA level” value is listed as “NC50>NC48>NC7>NC43>NC44>NC49>NC50>NC45>bicalutamide”.

The values are drawn from patent US8648105B2, “Diarylthiohydantoin compounds” (The Regents of the University of California, priority 2006, dated 2014).
